Measured values published in paper PMC12337082 (Journal of Biochemical and Molecular Toxicology, 2025).
Read-outs that look alike come from different tables or passages of the source.

How the values were obtained:
MCF‐7 [1] = conditions: MCF‐7, 24 h, ref Raymond et al. (1997) [66]; cited from earlier work
MDA‐MB‐231 [2] = conditions: MDA‐MB‐231, 24 h, ref Raymond et al. (1997) [66]; cited from earlier work
MDA‐MB‐231 [3] = experiment: MTT cell viability assay, MDA‐MB‐231; format: cell-based, human; conditions: for IC50: Homo sapiens, MTT
Text: (§1) MCF‐7, MDA‐MB‐231, and L‐929 mouse fibroblast cell lines were obtained from the American Type Culture Collection (ATCC, Manassas, Virginia, USA). MCF‐7 is a hormone‐responsive, differentiated mammary epithelium cell line with an ER+, PR+, and HER2‐ pattern (ATCC, HTB‐22). MDA‐MB‐231 is a triple‐negative differentiated mammary epithelium cell line (ATCC, HTB‐26). The L‐929 mouse fibroblast cell line is derived from the normal subcutaneous connective tissue of a mouse and is commonly used in cytotoxicity assays (ATCC, CCL‐1). All cell lines were cultured in DMEM medium (Dulbecco's Modified Eagle Medium, Gibco), supplemented with 10% fetal bovine serum (Gibco), 1% glutamine, and penicillin/streptomycin (Gibco) in a humidified atmosphere containing 5% CO2 at 37°C. Cell viability was tested using Trypan blue staining.
(§2) The MTT [3‐(4,5‐dimethylthiazol‐2‐yl)−2,5‐diphenyltetrazolium bromide] assay is a colorimetric assay for determining cell metabolic activity. In the MTT assay, the yellow dye MTT that dissolves in water is changed by mitochondrial reductase into a purple formazan that is non‐soluble. The water‐insoluble formazan produced is solubilized in a solubilization buffer, and absorbances are detected.
(§3) In 96‐well plates, the cells were cultivated at a density of 5 × 10^3 cells/well using 100 µL medium. […] 10 μL of the MTT labeling reagent (final concentration 0.5 mg/mL) were added to each well at the end of the incubation periods, and the wells were incubated for an additional 4 h. Next, each well received 100 μL of solubilization buffer (10% SDS in 0.01 M HCl) and was overnight incubated, and the absorbance of formazan products was evaluated at 550 nm using a multi‐mode microplate reader (Synergy H1, Biotech Instruments Inc., Vermont, USA). The results were normalized relative to the absorbances of calculated percent concentrations of DMSO. All tests involved three replicates with three independent experiments.
(§4) All statistical evaluations, including t‐tests and IC50 values, were calculated using the GraphPad Prism software tool (v6.0, GraphPad Software Inc., San Diego, USA). Statistical significance was defined as p ˂ 0.05 (*p < 0.05, **p < 0.01, ***p < 0.001, ****p < 0.0001).

[4] = tested on: MCF‐7, MDA‐MB‐231, and L‐929; experiment: MTT cell viability assay, statements over all cell lines; format: cell-based; conditions: 25 µM; MCF‐7, MDA‐MB‐231 and L‐929; not dose‐dependent
Text: as §1, §2, §3
All statistical evaluations, including t‐tests and IC50 values, were calculated using the GraphPad Prism software tool (v6.0, GraphPad Software Inc., San Diego, USA). […]

MCF‐7 [5] = experiment: MTT cell viability assay, MCF‐7; format: cell-based, human; conditions: for IC50: Homo sapiens, MCF7, MTT
Text: as §1, §2, §3, §4

[6] = tested on: L‐929 mouse fibroblast cell line; experiment: MTT cell viability assay, L‐929 control fibroblasts; format: cell-based; conditions: Mus musculus
Text: as §1, §2, §3, §4

[7] = tested on: multiple myeloma cell lines; set-up: method as in Yasui et al. (2007) [63]; conditions: 48 h, ref Yasui et al. (2007) [63]; cited from earlier work
PGE2 release [8] = experiment: PGE2 ELISA, MDA‐MB‐231; format: cell-based, human; conditions: MDA‐MB‐231, 3 µM
Description: (§5) PGE2 ELISA kit (ENZO, ADI‐900‐001) was used to determine prostaglandin synthesis levels. MCF‐7 and MDA‐MB‐231 breast cancer cells were cultured at a density of 1 × 10^6 cells/well in a 6‐well culture dish. […] Following 24 h of incubation, the medium was replaced with a fresh one, 10 µM arachidonic acid was added, and it was further incubated for 1 h. The PGE2 levels were determined according to the kit protocol.

PGE2 release [9] = experiment: PGE2 ELISA, MCF‐7; format: cell-based, human; conditions: MCF‐7, 3 µM
Description: as §5

## O=C(O)C(=O)O.[NH-][C@@H]1CCCC[C@H]1[NH-].[Pt+2] [Oxaliplatin]
MCF‐7 [1]
  IC50: 7.4 µM
MDA‐MB‐231 [2]
  IC50: 17.9 µM

## CCc1cccc2c3c([nH]c12)C(CC)(Cc1n[nH]c(=S)n1Cc1ccccc1)OCC3 (stereo not shown) [SGK 242, 5‐[(1,8‐Diethyl‐1,3,4,9‐tetrahydropyrano[3,4‐b]indole‐1‐yl)methyl]‐4‐benzyl‐2,4‐dihydro‐3H‐1,2,4‐triazole‐3‐thione]
MDA‐MB‐231 [3]; MDA-MB-231, 24 h, MDA‐MB‐231, 24 h
  IC50: 31 ± 2.5 µM
MDA‐MB‐231 [3]; MDA-MB-231, 48 h, MDA‐MB‐231, 48 h
  IC50: 24 ± 1.2 µM
MDA‐MB‐231 [3]; MDA‐MB‐231 in comparison to L‐929, 24 h
  Selectivity index (SI): 1.2
MDA‐MB‐231 [3]; MDA‐MB‐231 in comparison to L‐929, 48 h
  Selectivity index (SI): 1.8
[4]
  Toxicity on all cell lines: severe toxicity
MCF‐7 [5]; MCF‐7, 24 h
  IC50: 22 ± 0.1 µM
MCF‐7 [5]; MCF‐7, 48 h
  IC50: 12 ± 3.3 µM
MCF‐7 [5]; MCF‐7 in comparison to L‐929, 24 h
  Selectivity index (SI): 1.7
MCF‐7 [5]; MCF‐7 in comparison to L‐929, 48 h
  Selectivity index (SI): 3.6
[6]; L929, 24 h, L‐929, 24 h
  IC50: 38 ± 8.05 µM
[6]; L929, 48 h, L‐929, 48 h
  IC50: 44.2 ± 2.45 µM

## CCc1cc(Br)cc2c3c([nH]c12)C(CC)(CCO)OCC3 (stereo not shown) [Etodolac analog SDX‐308]
[7]
  IC50: 23.8 µM

## CS(=O)(=O)c1ccc(-c2cc(Br)sc2-c2ccc(F)cc2)cc1 [DUP‐697]
PGE2 release [8]
  Reduction of PGE2 release: 88%
PGE2 release [9]
  Reduction of PGE2 release: 46%
